# In US10023577B2, “Crystalline form of JAK kinase inhibitor bisulfate and a preparation method thereof” (Jiangsu Hengrui Medicine Co., Ltd., priority 2014, dated 2018):
# “Also recorded” adds a separate entry of the source.
# Assays:
# [1] = Stability of samples spread flat in the air under lighting, heating and high humidity, purity by HPLC; assay type: physicochemical
# Protocol: Crystal form II prepared in Example 1 and the amorphous sample prepared in Example 2 were spread flat in the air to test their stability in conditions of lighting (4500 Lux), heating (40° C., 60′C.), and high humidity (RH 75%, RH 90%).
# [2] = Special stability study: grinding, heating and pressing of the crystal form; assay type: physicochemical
# Excerpt: Crystal form II of the compound of formula (I) prepared according to the method of Example 1 was ground, heated and pressed.
"purity as detected by HPLC ([1]; 40° C., Day 0) [%]","purity as detected by HPLC ([1]; 40° C., Day 5) [%]","purity as detected by HPLC ([1]; 40° C., Day 10) [%]","purity as detected by HPLC ([1]; 60° C., Day 0) [%]","purity as detected by HPLC ([1]; 60° C., Day 5) [%]","purity as detected by HPLC ([1]; 60° C., Day 10) [%]","purity as detected by HPLC ([1]; Lighting (4500 Lux), Day 0) [%]","purity as detected by HPLC ([1]; Lighting (4500 Lux), Day 5) [%]","purity as detected by HPLC ([1]; Lighting (4500 Lux), Day 10) [%]","purity as detected by HPLC ([1]; RH 75%, Day 0) [%]","purity as detected by HPLC ([1]; RH 75%, Day 5) [%]","purity as detected by HPLC ([1]; RH 75%, Day 10) [%]","purity as detected by HPLC ([1]; RH 90%, Day 0) [%]","purity as detected by HPLC ([1]; RH 90%, Day 5) [%]","purity as detected by HPLC ([1]; RH 90%, Day 10) [%]",effect of high humidity on stability [1],SMILES,also measured
99.30,99.30,99.28,99.30,99.20,99.15,99.30,99.29,99.30,99.30,99.31,99.28,99.30,99.31,99.31,does not have much effect,"COc1nsc(NC(=O)N2C[C@H]3C[C@H](N(C)c4ncnc5[nH]ccc45)C[C@H]3C2)n1 [Crystal form II, (3aR,5s,6aS)—N-(3-methoxyl-1,2,4-thiadiazole-5-yl)-5-(methyl(7H-pyrrolo[2,3-d]pyrimidine-4-yl)amino)hexahydrocyclopenta[c]pyrrole-2(1H)-formamide bisulfate]","stability compared with the amorphous sample ([1]; conditions of high temperature and high humidity): significantly better than that of the amorphous sample; stability compared with the amorphous sample ([1]; conditions of lighting and high temperature): significantly better than that of the amorphous sample; Crystal form after treatment ([2]; Grinding treatment for 10 minutes in a mortar under nitrogen atmosphere): form II; Crystal form after treatment ([2]; Heating treatment at 80° C. for 3 hours): form II; Crystal form after treatment ([2]; Pressing treatment, pressed to a slice): form II; stability of the crystal form ([2]; ground, heated and pressed): good stability; also recorded: stable"
98.33,97.65,96.61,98.33,94.53,92.12,98.33,98.04,97.51,98.33,98.32,98.16,98.33,99.14,99.12,does not have much effect,"COc1nsc(NC(=O)N2C[C@H]3C[C@H](N(C)c4ncnc5[nH]ccc45)C[C@H]3C2)n1 [Amorphous Form, (3aR,5s,6aS)—N-(3-methoxyl-1,2,4-thiadiazole-5-yl)-5-(methyl(7H-pyrrolo[2,3-d]pyrimidine-4-yl)amino)hexahydrocyclopenta[c]pyrrole-2(1H)-formamide bisulfate]",
